Reference: ChEMBL document CHEMBL5236580, “Blocking Non-enzymatic Functions by PROTAC-Mediated Targeted Protein Degradation” (J Med Chem, 2022)
One block for each compound: values may come before it.

Assays:
[1] = biological target: T1, Aurora kinase A (Homo sapiens, UniProt O14965); test: Induction of degradation of AURORA-A in human MV4-11 cells; assay type: cell-based
T1 sequence (O14965 whole entry): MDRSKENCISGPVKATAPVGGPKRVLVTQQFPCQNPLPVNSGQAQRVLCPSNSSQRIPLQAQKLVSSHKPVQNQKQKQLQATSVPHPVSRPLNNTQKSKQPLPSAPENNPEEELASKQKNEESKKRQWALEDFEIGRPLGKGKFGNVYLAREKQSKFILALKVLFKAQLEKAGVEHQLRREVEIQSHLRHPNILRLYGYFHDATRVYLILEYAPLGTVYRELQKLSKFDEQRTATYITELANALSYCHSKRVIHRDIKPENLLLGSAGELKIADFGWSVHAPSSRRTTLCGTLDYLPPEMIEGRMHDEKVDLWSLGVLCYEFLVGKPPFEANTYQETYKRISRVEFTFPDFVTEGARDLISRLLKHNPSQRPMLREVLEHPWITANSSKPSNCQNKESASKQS

[2] = tested on: JeKo-1; test: Antiproliferative activity against human JeKo-1 cells harbouring p53 mutant; assay type: functional, cell-based
[3] = Antiproliferative activity against human MINO cells harbouring p53 mutant; assay type: functional, cell-based
[4] = Antitumor activity against human MDSC cells xenografted in BALB/c mouse assessed as tumor growth inhibition relative to control; assay type: functional, Myeloid-derived suppressor cell
[5] = biological target: T2, Nicotinamide phosphoribosyltransferase (Homo sapiens, UniProt P43490); test: Induction of degradation NAMPT (unknown origin)
Target sequence in this assay (P43490 whole entry): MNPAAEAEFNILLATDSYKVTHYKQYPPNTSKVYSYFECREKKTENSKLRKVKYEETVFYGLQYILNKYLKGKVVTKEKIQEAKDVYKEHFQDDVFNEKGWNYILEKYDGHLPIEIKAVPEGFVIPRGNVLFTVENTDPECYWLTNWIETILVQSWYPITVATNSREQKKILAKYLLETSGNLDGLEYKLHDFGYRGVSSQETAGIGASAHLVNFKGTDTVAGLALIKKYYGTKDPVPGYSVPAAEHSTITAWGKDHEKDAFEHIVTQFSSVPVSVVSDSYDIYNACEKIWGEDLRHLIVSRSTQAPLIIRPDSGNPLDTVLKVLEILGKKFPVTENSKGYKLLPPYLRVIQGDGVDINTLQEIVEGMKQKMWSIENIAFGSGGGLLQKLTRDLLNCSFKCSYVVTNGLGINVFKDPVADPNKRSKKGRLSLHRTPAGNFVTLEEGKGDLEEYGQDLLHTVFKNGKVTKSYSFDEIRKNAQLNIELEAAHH

[6] = biological target: T2, Nicotinamide phosphoribosyltransferase; test: Inhibition of NAMPT (unknown origin)
Target sequence in this assay (P43490 whole entry): as above

[7] = biological target: T2, Nicotinamide phosphoribosyltransferase; test: Induction of degradation NAMPT (unknown origin) assessed as maximum degradation relative to control
Target sequence in this assay (P43490 whole entry, looked up): as the sequence (P43490 whole entry) above

[8] = biological target: Peptidyl-prolyl cis-trans isomerase FKBP1A (Homo sapiens, UniProt P62942); test: Induction of degradation of FKBP12 (unknown origin)
[9] = biological target: T3, Histone-lysine N-methyltransferase EZH2 (Homo sapiens, UniProt Q15910); test: Induction of degradation of EZH2 in human MV4-11 cells assessed as maximum degradation relative to control; assay type: cell-based
Target sequence in this assay (Q15910 whole entry, looked up): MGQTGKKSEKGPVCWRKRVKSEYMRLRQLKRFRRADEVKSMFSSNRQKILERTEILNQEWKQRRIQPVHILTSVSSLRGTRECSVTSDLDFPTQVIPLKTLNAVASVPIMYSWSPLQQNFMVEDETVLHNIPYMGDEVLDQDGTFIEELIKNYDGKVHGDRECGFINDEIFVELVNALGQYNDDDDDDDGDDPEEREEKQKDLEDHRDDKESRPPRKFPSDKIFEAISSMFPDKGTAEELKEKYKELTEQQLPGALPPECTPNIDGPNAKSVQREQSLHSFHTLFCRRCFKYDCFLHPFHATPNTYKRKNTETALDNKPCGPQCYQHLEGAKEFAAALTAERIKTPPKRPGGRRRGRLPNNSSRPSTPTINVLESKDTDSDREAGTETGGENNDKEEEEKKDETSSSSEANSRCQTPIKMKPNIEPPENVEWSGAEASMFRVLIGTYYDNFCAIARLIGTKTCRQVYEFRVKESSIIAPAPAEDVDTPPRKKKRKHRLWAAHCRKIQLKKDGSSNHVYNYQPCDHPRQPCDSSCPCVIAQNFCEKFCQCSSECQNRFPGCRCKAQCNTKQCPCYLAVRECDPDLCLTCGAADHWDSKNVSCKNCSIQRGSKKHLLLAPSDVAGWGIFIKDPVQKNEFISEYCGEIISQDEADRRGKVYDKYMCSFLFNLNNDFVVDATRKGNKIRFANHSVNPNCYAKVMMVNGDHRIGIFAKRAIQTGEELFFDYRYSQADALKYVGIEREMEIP

[10] = biological target: T3, Histone-lysine N-methyltransferase EZH2; test: Induction of degradation of EZH2 in human MV4-11 cells; assay type: cell-based
Target sequence in this assay (Q15910 whole entry): as the sequence (Q15910 whole entry, looked up) above

[11] = biological target: T3, Histone-lysine N-methyltransferase EZH2; test: Induction of degradation of EZH2 in human EOL1 cells; assay type: cell-based
Target sequence in this assay (Q15910 whole entry): as the sequence (Q15910 whole entry, looked up) above

[12] = biological target: T3, Histone-lysine N-methyltransferase EZH2; test: Inhibition of EZH2 (unknown origin)
Target sequence in this assay (Q15910 whole entry): as the sequence (Q15910 whole entry, looked up) above

[13] = biological target: T3, Histone-lysine N-methyltransferase EZH2; test: Induction of degradation of EZH2 in human EOL1 cells assessed as maximum degradation relative to control; assay type: cell-based
Target sequence in this assay (Q15910 whole entry, looked up): as above

[14] = biological target: T4, von Hippel-Lindau disease tumor suppressor/Focal adhesion kinase 1 (Mus musculus) (UniProt P34152+P40338); test: In vivo protac activity at VHL/FAK xenografted in CD-1 mouse liver assessed as reduct ion in FAK level at 80 mg/kg, sc measured after 96 hrs relative to control; assay type: functional, organism-based
[15] = biological target: T4, von Hippel-Lindau disease tumor suppressor/Focal adhesion kinase 1 (Mus musculus); test: In vivo protac activity at VHL/FAK xenografted in CD-1 mouse liver assessed as increased in FAK degradation at 80 mg/kg, sc incubated for 18 hrs relative to control; assay type: functional, organism-based
[16] = biological target: T5, Focal adhesion kinase 1 (Homo sapiens, UniProt Q05397); test: Induction of degradation of Fak in human PC-3 cells; assay type: cell-based
Target sequence in this assay (Q05397 whole entry): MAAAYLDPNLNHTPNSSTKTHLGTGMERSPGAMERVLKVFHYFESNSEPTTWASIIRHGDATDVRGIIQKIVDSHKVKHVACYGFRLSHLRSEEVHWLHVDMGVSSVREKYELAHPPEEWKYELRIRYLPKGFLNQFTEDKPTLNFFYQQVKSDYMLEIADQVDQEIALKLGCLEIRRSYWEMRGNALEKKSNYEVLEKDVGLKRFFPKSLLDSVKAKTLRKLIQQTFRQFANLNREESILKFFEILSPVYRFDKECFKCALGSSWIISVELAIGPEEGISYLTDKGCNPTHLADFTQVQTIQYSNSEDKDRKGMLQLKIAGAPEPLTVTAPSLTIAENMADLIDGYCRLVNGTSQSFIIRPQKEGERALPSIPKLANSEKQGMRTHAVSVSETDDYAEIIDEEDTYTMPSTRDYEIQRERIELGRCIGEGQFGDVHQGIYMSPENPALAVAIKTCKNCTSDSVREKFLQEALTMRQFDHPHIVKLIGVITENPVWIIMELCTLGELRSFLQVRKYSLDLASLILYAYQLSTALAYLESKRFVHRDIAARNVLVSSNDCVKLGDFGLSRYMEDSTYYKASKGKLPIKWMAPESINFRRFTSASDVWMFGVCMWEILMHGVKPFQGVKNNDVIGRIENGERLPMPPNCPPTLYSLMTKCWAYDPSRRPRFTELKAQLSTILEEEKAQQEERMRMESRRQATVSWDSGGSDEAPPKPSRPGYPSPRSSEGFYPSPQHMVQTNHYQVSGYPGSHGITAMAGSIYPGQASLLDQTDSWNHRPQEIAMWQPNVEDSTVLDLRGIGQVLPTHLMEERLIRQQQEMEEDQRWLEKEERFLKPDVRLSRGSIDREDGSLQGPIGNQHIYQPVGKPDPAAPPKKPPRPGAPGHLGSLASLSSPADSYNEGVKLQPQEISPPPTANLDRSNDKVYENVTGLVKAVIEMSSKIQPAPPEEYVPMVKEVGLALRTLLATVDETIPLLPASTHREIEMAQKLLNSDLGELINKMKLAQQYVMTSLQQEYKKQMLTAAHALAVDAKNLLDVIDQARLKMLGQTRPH

[17] = biological target: T5, Focal adhesion kinase 1; test: Induction of degradation of Fak in human PC-3 cells assessed as maximum degradation relative to control; assay type: cell-based
Target sequence in this assay (Q05397 2-1052 limits assumed): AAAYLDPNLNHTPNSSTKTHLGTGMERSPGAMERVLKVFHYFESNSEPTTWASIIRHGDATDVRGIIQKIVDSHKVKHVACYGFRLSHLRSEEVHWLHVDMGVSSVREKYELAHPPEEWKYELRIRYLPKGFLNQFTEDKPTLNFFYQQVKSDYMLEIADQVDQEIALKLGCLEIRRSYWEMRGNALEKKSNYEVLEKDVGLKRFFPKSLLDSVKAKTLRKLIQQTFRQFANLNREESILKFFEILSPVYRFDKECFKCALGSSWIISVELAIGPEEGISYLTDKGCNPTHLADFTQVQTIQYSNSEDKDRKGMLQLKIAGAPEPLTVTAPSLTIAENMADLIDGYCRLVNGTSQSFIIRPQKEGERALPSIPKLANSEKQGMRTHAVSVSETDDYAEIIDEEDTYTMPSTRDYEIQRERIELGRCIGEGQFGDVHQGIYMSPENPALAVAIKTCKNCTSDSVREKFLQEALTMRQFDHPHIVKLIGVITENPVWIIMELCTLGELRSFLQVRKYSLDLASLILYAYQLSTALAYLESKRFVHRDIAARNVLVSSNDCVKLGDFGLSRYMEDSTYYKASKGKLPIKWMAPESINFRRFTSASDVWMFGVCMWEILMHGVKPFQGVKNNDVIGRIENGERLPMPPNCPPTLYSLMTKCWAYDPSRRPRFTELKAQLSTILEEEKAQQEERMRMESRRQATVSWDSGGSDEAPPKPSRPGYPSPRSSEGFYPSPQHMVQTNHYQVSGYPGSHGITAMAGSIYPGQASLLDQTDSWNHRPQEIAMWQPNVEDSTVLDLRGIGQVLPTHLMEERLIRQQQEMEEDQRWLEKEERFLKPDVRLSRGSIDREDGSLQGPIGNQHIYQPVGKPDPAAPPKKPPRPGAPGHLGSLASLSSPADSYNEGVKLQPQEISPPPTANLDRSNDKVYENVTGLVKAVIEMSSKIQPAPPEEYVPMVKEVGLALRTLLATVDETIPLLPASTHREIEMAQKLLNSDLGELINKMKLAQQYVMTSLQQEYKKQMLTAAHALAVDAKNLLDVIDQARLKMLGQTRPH

[18] = Growth inhibition of human Triple-negative breast cancer cells; assay type: functional; conditions: Triple-negative breast cancer cell
[19] = biological target: T3, Histone-lysine N-methyltransferase EZH2; test: Induction of degradation of EZH2 degradation in human MDA-MB-453 cells; assay type: cell-based
Target sequence in this assay (Q15910 whole entry): as the sequence (Q15910 whole entry, looked up) above

[20] = Antiproliferative activity against human TNBC ductal adenocarcinoma cells assessed as cell growth inhibition; assay type: functional; conditions: Triple-negative breast cancer cell
[21] = Antiproliferative activity against human Triple-negative breast cancer cells assessed as cell growth inhibition; assay type: functional
[22] = tested on: MV4-11; test: Induction of cell cycle arrest in human MV4-11 cells assessed as accumulation of cells at G2/M phase measured after 12 hrs; assay type: functional, cell-based; conditions: MV4-11, 12 h
[23] = biological target: Ubiquitin carboxyl-terminal hydrolase 7 (Homo sapiens, UniProt Q93009); test: Induction of degradation of USP7 (unknown origin)
[24] = biological target: Protein cereblon/Protein deacetylase HDAC6 (Homo sapiens) (UniProt Q9UBN7+Q96SW2); test: PROTAC activity at CRBN/HDAC6 in human K562 cells assessed as degradation of HDAC6 relative to control; assay type: cell-based
[25] = biological target: Protein cereblon/Protein deacetylase HDAC6 (Homo sapiens, UniProt Q96SW2+Q9UBN7); test: PROTAC activity at CRBN/HDAC6 in human K562 cells assessed as degradation of HDAC6; assay type: cell-based

T4 sequence (P34152 whole entry, looked up): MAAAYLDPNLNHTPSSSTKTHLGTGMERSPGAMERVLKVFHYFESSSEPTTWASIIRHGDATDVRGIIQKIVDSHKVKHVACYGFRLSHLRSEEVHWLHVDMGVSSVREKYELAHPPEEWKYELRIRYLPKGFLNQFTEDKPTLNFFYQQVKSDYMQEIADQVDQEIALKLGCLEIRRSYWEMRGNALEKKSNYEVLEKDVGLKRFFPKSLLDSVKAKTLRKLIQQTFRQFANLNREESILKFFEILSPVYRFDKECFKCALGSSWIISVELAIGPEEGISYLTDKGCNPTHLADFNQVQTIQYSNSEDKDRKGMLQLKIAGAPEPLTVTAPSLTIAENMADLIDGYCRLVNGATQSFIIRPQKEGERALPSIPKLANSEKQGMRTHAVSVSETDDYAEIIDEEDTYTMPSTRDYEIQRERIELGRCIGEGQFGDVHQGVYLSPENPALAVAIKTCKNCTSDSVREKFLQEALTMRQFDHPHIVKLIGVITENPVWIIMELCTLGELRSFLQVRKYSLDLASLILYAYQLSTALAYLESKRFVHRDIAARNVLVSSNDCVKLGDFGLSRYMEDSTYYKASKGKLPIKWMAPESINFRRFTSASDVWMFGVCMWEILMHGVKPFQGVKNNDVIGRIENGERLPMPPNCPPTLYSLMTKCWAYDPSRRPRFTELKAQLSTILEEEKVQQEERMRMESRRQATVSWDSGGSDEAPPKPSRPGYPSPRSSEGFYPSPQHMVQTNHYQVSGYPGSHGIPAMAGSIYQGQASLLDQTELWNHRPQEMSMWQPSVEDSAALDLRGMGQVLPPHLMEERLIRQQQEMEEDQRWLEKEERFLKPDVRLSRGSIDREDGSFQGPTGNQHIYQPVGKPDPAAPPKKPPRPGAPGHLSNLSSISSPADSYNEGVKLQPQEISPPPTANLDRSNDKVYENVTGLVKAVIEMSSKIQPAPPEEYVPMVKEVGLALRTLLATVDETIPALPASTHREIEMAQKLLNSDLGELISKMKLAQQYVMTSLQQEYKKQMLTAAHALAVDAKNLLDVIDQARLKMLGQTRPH
T4 sequence (P40338 whole entry, looked up): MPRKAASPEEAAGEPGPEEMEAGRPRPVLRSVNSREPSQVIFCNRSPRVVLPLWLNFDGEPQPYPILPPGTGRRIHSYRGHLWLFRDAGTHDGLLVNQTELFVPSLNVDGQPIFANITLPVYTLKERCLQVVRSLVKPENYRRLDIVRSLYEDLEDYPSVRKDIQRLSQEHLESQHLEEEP
Sequence of Peptidyl-prolyl cis-trans isomerase FKBP1A (P62942 whole entry): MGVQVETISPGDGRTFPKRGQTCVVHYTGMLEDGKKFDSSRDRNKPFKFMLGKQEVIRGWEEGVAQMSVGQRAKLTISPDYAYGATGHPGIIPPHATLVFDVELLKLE

Structure (SMILES): COc1cc(Nc2ncc3c(n2)-c2ccc(Cl)cc2C(c2c(F)cccc2OC)=NC3)ccc1C(=O)NCCOCCOCCNC(=O)COc1cccc2c1C(=O)N(C1CCC(=O)NC1=O)C2=O (centres undefined)
EC50 [1]: 28 nM

Structure (SMILES): C[C@H](CC(=O)N1CCC(O)(Cn2cnc3c(-c4ccc(CN)cc4)n(C)nc3c2=O)CC1)c1ccccc1
IC50 [2]: > 20000 nM | IC50 [3]: > 20000 nM

Structure (SMILES): COC1C[C@H](C[C@@H](C)[C@@H]2CC(=O)C(C)/C=C(\C)[C@@H](O)[C@@H](OC)C(=O)[C@H](C)C[C@H](C)/C=C/C=C/C=C(\C)[C@@H](OC)C[C@@H]3CC[C@@H](C)[C@](O)(O3)C(=O)C(=O)N3CCCC[C@H]3C(=O)O2)CCC1OCCOCc1cn(CCOCCOCCNc2cccc3c2C(=O)N(C2CCC(=O)NC2=O)C3=O)nn1 (some centres undefined)
EC50 [8]: 0.27 nM

Structure (SMILES): O=S(=O)(c1ccc(NC(=S)NCc2cccnc2)cc1)N1CCN(Cc2ccccc2)CC1
TGI [4]: 40%

Structure (SMILES): Cc1cc(C)c(CNC(=O)c2cc(-c3ccc(N4CCN(CCNC(=O)CCOCCNc5cccc6c5C(=O)N(C5CCC(=O)NC5=O)C6=O)CC4)nc3)cc3c2cnn3C(C)C)c(=O)[nH]1 (centres undefined)
Emax [9]: 68% | EC50 [10]: 1500 nM | EC50 [11]: 200 nM | IC50 [12]: 7 nM | Emax [13]: 82%

Structure (SMILES): Cc1ncsc1-c1ccc(CNC(=O)[C@@H]2C[C@@H](O)CN2C(=O)[C@@H](NC(=O)CCOCCOc2ccc(Nc3ncc(C(F)(F)F)c(NCc4cccc(N(C)S(C)(=O)=O)c4)n3)cc2)C(C)(C)C)cc1
EC50 [16]: 3 nM | Emax [17]: 99%

Structure (SMILES): COc1cc(Nc2ncc3c(n2)-c2ccc(Cl)cc2C(c2c(F)cccc2OC)=NC3)ccc1C(=O)O [ALISERTIB]
IC50 [22]: 1.2 nM

Structure (SMILES): C[C@H](CC(=O)N1CCC(O)(Cn2cnc3c(-c4ccc(CNCCCCCCCCCCCNc5cccc6c5C(=O)N(C5CCC(=O)NC5=O)C6=O)cc4)n(C)nc3c2=O)CC1)c1ccccc1 (some centres undefined)
IC50 [2]: 1030 nM | EC50 [23]: 33 nM | IC50 [3]: 1180 nM

Structure (SMILES): O=C(CCCO/N=C1/C(=C2/C(=O)N(Cc3cn(CCOCCNc4cccc5c4C(=O)C(N4CCC(=O)NC4=O)C5=O)nn3)c3ccccc32)Nc2ccccc21)NO (centres undefined)
Emax [24]: 88% | EC50 [25]: 109 nM

Now from value to compound, other results behind:

EC50 [5]: 7.1 nM | IC50 [6]: 9.5 nM | Emax [7]: 90%
Structure (SMILES): Cc1ncsc1-c1ccc(C(C)NC(=O)C2CC(O)CN2C(=O)C(NC(=O)COCCOCCOCCOCCNC(=O)c2ccc(CN3CCN(S(=O)(=O)c4ccc(NC(=S)NCc5ccccc5)cc4)CC3)cc2)C(C)(C)C)cc1 (centres undefined)
TGI [4]: 80%

Emax [14]: 60% | Emax [15]: 85%
Structure (SMILES): CNC(=O)c1ccccc1Nc1cc(Nc2ccc(N3CCN(CC(=O)N[C@H](C(=O)N4C[C@H](O)C[C@H]4C(=O)N[C@@H](C)c4ccc(-c5scnc5C)cc4)C(C)(C)C)CC3)cc2OC)ncc1C(F)(F)F

IC50 [12]: 13 nM
Structure (SMILES): CCN(c1cc(-c2ccc(CN3CCN(C(=O)CCCCCCCC(=O)N[C@H](C(=O)N4C[C@H](OCc5ccccc5)C[C@H]4C(=O)NCc4ccc(-c5scnc5C)cc4)C(C)(C)C)CC3)cc2)cc(C(=O)NCc2c(C)cc(C)[nH]c2=O)c1C)C1CCOCC1
GI50 [18]: > 10000 nM

EC50 [19]: 140 nM
Structure (SMILES): CCN(c1cc(-c2ccc(CN3CCN(C(=O)CCCCCCCC(=O)N[C@H](C(=O)N4C[C@H](O)C[C@H]4C(=O)NCc4ccc(-c5scnc5C)cc4)C(C)(C)C)CC3)cc2)cc(C(=O)NCc2c(C)cc(C)[nH]c2=O)c1C)C1CCOCC1
GI50 [20]: 1400 nM | GI50 [21]: 1700 nM
